Data taken from PMC10732151, “1,4,7-Triazacyclononane-Based Chelators for the Complexation of [^186Re]Re- and [^99mTc]Tc-Tricarbonyl Cores” (Inorganic Chemistry, 2023).

Key:
Solubility (qualitative) = assay type: physicochemical
[1] = Storage stability of chelators and nonradioactive Re complexes; assay type: physicochemical; settings: for hydrolysis observed on storage: under dry conditions at RT for 3 months
[2] = In vitro radiocomplex stability in PBS buffer with no challenger, L-cysteine or L-histidine; assay type: physicochemical; settings: 37 °C
Protocol: Radiocomplex stability testing was carried out in PBS buffer (350–400 μL) with either no challenger or L-cysteine (50 μL, 10 mM) or L-histidine (50 μL, 10 mM) as the challenger. All stability tests also contained ascorbic acid (50 μL, 1 mg/mL in PBS, pH 7) as a radioprotectant. HPLC-purified radiocomplexes ([^99mTc]Tc, 50 μL, 3.7–5.6 MBq, 100–150 μCi; [^186Re]Re, 50 μL, 1.9–3.7 MBq, 50–100 μCi) were added to the stability testing solutions and incubated at 37 °C. Aliquots of each solution were taken at 1, 4, and 24 h, and the stability of the complex was determined by radio-HPLC (Methods 1 and 3) or radio-TLC (Developer 1). An additional stability time point of 48 h was taken for the [^186Re]Re complexes. The formation of colloidal [^99mTc]TcO2 or [^186Re]ReO2 was monitored at each time point by radio-TLC (Developers 1 and 2).

[3] = Radiocomplex stability in rat serum; assay type: in vitro ADME; settings: 37 °C
Protocol: The radiocomplex stability was also tested in rat serum. HPLC-purified radiocomplexes ([^99mTc]Tc, 50 μL, 7.4–11.1 MBq, 200–300 μCi; [^186Re]Re, 50 μL, 3.0–3.7 MBq, 80–100 μCi) were added to solutions of rat serum (400 μL, Innovative-grade U.S. Origin Sprague–Dawley Rat Serum, Innovative Research, Novi, MI) and ascorbic acid (50 μL, 1 mg/mL in PBS, pH 7). The rat serum mixtures were incubated at 37 °C. Aliquots (100–300 μL) were taken at 1, 4, and 24 h for all radiocomplexes and also at 48 h for the [^186Re]Re complexes. The rat serum aliquots were added to a 4 times volume of acetonitrile to precipitate the rat serum proteins. The solutions were vortexed for 1 min and centrifuged for 10 min. The supernatant was carefully removed, and the pellet was washed with another portion of acetonitrile (100–500 μL). The solution was again vortexed and centrifuged, and the supernatant was removed. The activities in the combined supernatants (containing radiocomplex not bound to proteins) and the pellet (containing radiocomplex bound to proteins) were measured to determine the percentage of nonspecific protein binding for each radiocomplex. Finally, the solvent was removed from the supernatant under a stream of nitrogen, and the stability of the radiocomplexes was determined by radio-HPLC (Methods 1 and 3) after reconstitution in PBS (1 mM, pH 7.4). The formation of colloidal [^99mTc]TcO2 or [^186Re]ReO2 was also monitored at each time point by radio-TLC (Developers 1 and 2).

O=C(CN1CCNCCNCC1)NCc1ccccc1 [Chelator 3, N-Benzyl-2-(1,4,7-triazonan-1-yl)acetamide]
solubility (solvents in which soluble) (Solubility (qualitative)): soluble in water, methanol, and acetonitrile

O=C(O)CN1CCN(CC(=O)O)CCN(CC(=O)NCc2ccccc2)CC1 [Chelator 4, TACN-benzylamide Acid]
time stable on storage ([1]; at RT in an aqueous solution, in words): several months | solubility (solvents in which soluble) (Solubility (qualitative)): soluble in water, methanol, and acetonitrile

COC(=O)CN1CCN(CC(=O)NCc2ccccc2)CCN(CC(=O)OC)CC1 [Chelator 5, TACN-benzylamide Methyl Ester]
time stable on storage ([1]; stored in a methanol solution, afterwards ester hydrolysis observed): up to 1 week | solubility (solvents in which soluble) (Solubility (qualitative)): soluble in methanol and acetonitrile

CCOC(=O)CN1CCN(CC(=O)NCc2ccccc2)CCN(CC(=O)OCC)CC1 [Chelator 6, TACN-benzylamide Ethyl Ester]
time stable on storage ([1]; stored in an ethanol solution): up to 1 week | solubility (solvents in which soluble) (Solubility (qualitative)): soluble in ethanol and acetonitrile

COC(=O)CN1CCN(CC(=O)O)CCN(CC(=O)NCc2ccccc2)CC1 [Chelator 7, TACN-benzylamide Acid Methyl Ester]
solubility (solvents in which soluble) (Solubility (qualitative)): soluble in methanol, ethanol, and water

CCOC(=O)CN1CCN(CC(=O)O)CCN(CC(=O)NCc2ccccc2)CC1 [Chelator 8, TACN-benzylamide Acid Ethyl Ester]
solubility (solvents in which soluble) (Solubility (qualitative)): soluble in ethanol and acetonitrile

CCOC(=O)C[N+]12CC[N+]3(CC(=O)NCc4ccccc4)CC[N+](CC(=O)OCC)(CC1)[Re-2]32.[C-]#[O+].[C-]#[O+].[C-]#[O+] (stereo not shown) [Re-6, fac-[Re(CO)3(TACN-benzylamideethyl ester)]^+]
hydrolysis observed on storage [1]: no hydrolysis observed

COC(=O)CN1CCN(CC(=O)NCc2ccccc2)CCN(CC(=O)OC)CC1.O=[C]=[99Tc+](=[C]=O)=[C]=O [[^99mTc]Tc-5]
stability in PBS, L-cysteine, and L-histidine ([2]; through 4 h): > 90% | stability in PBS, L-cysteine, and L-histidine ([2]; through 24 h): > 79% | stability in rat serum ([3]; 24 h): 32 ± 10% | stability in rat serum ([3]; at 1 h): 94 ± 1%

CCOC(=O)CN1CCN(CC(=O)NCc2ccccc2)CCN(CC(=O)OCC)CC1.O=[C]=[99Tc+](=[C]=O)=[C]=O [[^99mTc]Tc-6]
stability in PBS, L-cysteine, and L-histidine ([2]; through 4 h): > 90% | stability in PBS, L-cysteine, and L-histidine ([2]; through 24 h): > 79% | stability in rat serum ([3]; 24 h): ≤ 2%

COC(=O)CN1CCN(CC(=O)O)CCN(CC(=O)NCc2ccccc2)CC1.O=[C]=[99Tc+](=[C]=O)=[C]=O [[^99mTc]Tc-7]
stability in PBS, L-cysteine, and L-histidine ([2]; through 24 h): 100% | stability in rat serum ([3]; 24 h): > 60%

CCOC(=O)CN1CCN(CC(=O)O)CCN(CC(=O)NCc2ccccc2)CC1.O=[C]=[99Tc+](=[C]=O)=[C]=O [[^99mTc]Tc-8]
stability in PBS, L-cysteine, and L-histidine ([2]; through 24 h): 100% | stability in rat serum ([3]; 24 h): > 60%

COC(=O)CN1CCN(CC(=O)NCc2ccccc2)CCN(CC(=O)OC)CC1.O=[C]=[186Re+](=[C]=O)=[C]=O [[^186Re]Re-5]
stability in PBS, L-cysteine, and L-histidine ([2]; through 4 h): > 95% | stability in PBS, L-cysteine, and L-histidine ([2]; through/after 48 h): > 76% | stability in rat serum ([3]; 48 h): 4 ± 1% | stability in rat serum ([3]; at 1 h): 88 ± 1%

CCOC(=O)CN1CCN(CC(=O)NCc2ccccc2)CCN(CC(=O)OCC)CC1.O=[C]=[186Re+](=[C]=O)=[C]=O [[^186Re]Re-6]
stability in PBS, L-cysteine, and L-histidine ([2]; through 4 h): > 95% | stability in PBS, L-cysteine, and L-histidine ([2]; through/after 48 h): > 76% | stability in rat serum ([3]; 48 h): ≤ 2%

COC(=O)CN1CCN(CC(=O)O)CCN(CC(=O)NCc2ccccc2)CC1.O=[C]=[186Re+](=[C]=O)=[C]=O [[^186Re]Re-7]
stability in PBS, L-cysteine, and L-histidine ([2]; through/after 48 h): > 94% | stability in rat serum ([3]; 48 h): 38%

CCOC(=O)CN1CCN(CC(=O)O)CCN(CC(=O)NCc2ccccc2)CC1.O=[C]=[186Re+](=[C]=O)=[C]=O [[^186Re]Re-8]
stability in PBS, L-cysteine, and L-histidine ([2]; through/after 48 h): > 94% | stability in rat serum ([3]; 48 h): 42%

fac-[Re(CO)3(TACN-benzylamide acid)]^+ [Re-4]
time stable on storage ([1]; stored under dry conditions, in words): several months | solubility (solvents in which soluble) (Solubility (qualitative)): soluble in water and methanol

fac-[Re(CO)3(TACN-benzylamide methyl ester)]^+ [Re-5]
hydrolysis observed on storage [1]: < 5%

fac-[Re(CO)3(TACN-benzylamide)]^+ [Re-3]
time stable on storage ([1]; stored under dry, dark conditions at RT): 1 month | solubility (solvents in which soluble) (Solubility (qualitative)): soluble in water
